In US8653075B2, “Therapeutic methods employing substituted piperidines which are CCR3 antagonists” (Boehringer Ingelheim International GmbH, priority 2009, dated 2014):

Target: T1, human chemokine receptor CCR3 (Homo sapiens, UniProt P51677)
T1 construct: expressed in transfected cells; host or cells: K562 cell line (hCCR3-C1 cells), membrane preparation
T1 sequence (P51677 1-355): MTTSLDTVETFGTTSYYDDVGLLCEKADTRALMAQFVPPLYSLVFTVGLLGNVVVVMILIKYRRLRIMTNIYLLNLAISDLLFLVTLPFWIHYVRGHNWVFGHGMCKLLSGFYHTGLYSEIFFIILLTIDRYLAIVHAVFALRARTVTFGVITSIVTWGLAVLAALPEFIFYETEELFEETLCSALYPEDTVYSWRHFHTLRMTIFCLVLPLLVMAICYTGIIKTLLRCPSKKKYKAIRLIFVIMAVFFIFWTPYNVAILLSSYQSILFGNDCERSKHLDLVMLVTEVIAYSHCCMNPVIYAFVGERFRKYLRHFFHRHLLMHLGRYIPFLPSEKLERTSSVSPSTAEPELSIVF
Experiment: CCR3 receptor binding assay (SPA, 125I-eotaxin-1 displacement, hCCR3-C1 K562 cell membranes)
Conditions: human Eotaxin-1 at human CCR3-Rezeptor; for inhibition at 1 µM: 1 μM test compound, read-out: CCR3 % inh @ 1 μM; for Ki: dose range 0.1 to 10000 nM
In short: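 SPA displacement of recombinant human 125I-eotaxin-1 (30.000 dpm per well) from membranes of CCR3-transfected K562 cells (0.5-10 μg protein/well) on WGA beads. Buffer was 25 mM HEPES, 25 mM MgCl2, 1 mM CaCl2, 0.1% BSA; incubation 2 h at room temperature. Specific binding was total minus NSB (unlabelled eotaxin-1), giving % inhibition and Ki.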

| inhibition at 1 µM [%] | Ki [nM] | SMILES |
| --- | --- | --- |
| 97 | 10 | CNC(=O)c1cc(C)nc(NC(=O)[C@H]2CCC(=O)N2C2CCN(Cc3ccc(Cl)c(C)c3)CC2)c1 [Example 150] |
| 95 | 18 | CNC(=O)c1cccc(NC(=O)[C@H]2CCC(=O)N2C2CCN(Cc3ccc(Cl)c(C)c3)CC2)c1 [Example 151] |
| 96 | 19 | Cc1cc(CN2CCC(N3C(=O)CC[C@@H]3C(=O)Nc3cccc(C(=O)N(C)CCO)c3)CC2)ccc1Cl [Example 159] |
| 90 | 62 | CCNC(=O)c1cc(NC(=O)[C@H]2CCC(=O)N2C2CCN(Cc3ccc(Cl)c(C)c3)CC2)ccc1C [Example 165] |
| 98 | 6 | Cc1cc(NC(=O)[C@H]2CCC(=O)N2C2CCN(Cc3ccc(Cl)c(C)c3)CC2)cc(C(=O)N(C)C)c1 [Example 167] |
| 99 | 4 | Cc1cc(CN2CCC(N3C(=O)CC[C@@H]3C(=O)Nc3cc(Cl)cc(C(=O)N(C)C)c3)CC2)ccc1Cl [Example 168] |
| 99 | 19 | CNC(=O)c1cc(Cl)cc(NC(=O)[C@H]2CCC(=O)N2C2CCN(Cc3ccc(Cl)c(C)c3)CC2)c1 [Example 169] |
| 100 | 6 | Cc1cc(CN2CCC(N3C(=O)CC[C@@H]3C(=O)Nc3cc(C(=O)N(C)CCO)cc(C(C)(C)C)c3)CC2)ccc1Cl [Example 170] |
| 99 | 5 | Cc1cc(CN2CCC(N3C(=O)CC[C@@H]3C(=O)Nc3cc(C(=O)N(C)C)cc(C(C)(C)C)c3)CC2)ccc1Cl [Example 171] |
| 95 | 7 | CNC(=O)c1cc(NC(=O)[C@H]2CCC(=O)N2C2CCN(Cc3ccc(Cl)c(C)c3)CC2)cc(C(C)(C)C)c1 [Example 172] |
| 99 | 13 | COc1cc(NC(=O)[C@H]2CCC(=O)N2C2CCN(Cc3ccc(Cl)c(C)c3)CC2)cc(C(=O)N(C)C)c1 [Example 173] |
| 99 | 13 | CNC(=O)c1cc(NC(=O)[C@H]2CCC(=O)N2C2CCN(Cc3ccc(Cl)c(C)c3)CC2)cc(OC)c1 [Example 174] |
| 99 | 6 | Cc1cc(NC(=O)[C@H]2CCC(=O)N2C2CCN(Cc3ccc(Cl)c(C)c3)CC2)cc(C(=O)N(C)CCO)c1 [Example 175] |
| 100 | 11 | Cc1cc(CN2CCC(N3C(=O)CC[C@@H]3C(=O)Nc3cc(F)cc(C(=O)N(C)C)c3)CC2)ccc1Cl [Example 176] |
| 97 | 24 | CNC(=O)c1cc(F)cc(NC(=O)[C@H]2CCC(=O)N2C2CCN(Cc3ccc(Cl)c(C)c3)CC2)c1 [Example 177] |
| 95 | 34 | COc1ccc(NC(=O)[C@H]2CCC(=O)N2C2CCN(Cc3ccc(Cl)c(C)c3)CC2)cc1C(=O)N(C)C [Example 179] |
| 99 | 4 | Cc1cc(CN2CCC(N3C(=O)CC[C@@H]3C(=O)Nc3cc(C(=O)N(C)C)cc(C(C)C)n3)CC2)ccc1Cl [Example 182] |
| 75 | 232 | COc1cc(C(=O)N(C)C)cc(NC(=O)[C@H]2CCC(=O)N2C2CCN(Cc3ccc(Cl)c(C)c3)CC2)n1 [Example 183] |
| 100 | 8 | CCc1cc(C(=O)N(C)C)cc(NC(=O)[C@H]2CCC(=O)N2C2CCN(Cc3ccc(Cl)c(C)c3)CC2)n1 [Example 184] |
| 98 | 1 | Cc1cc(CN2CCC(N3C(=O)CC[C@@H]3C(=O)Nc3cc(C(=O)N(C)C)cc(-c4nnnn4C)c3)CC2)ccc1Cl [Example 185] |
| 100 | 4 | Cc1cc(CN2CCC(N3C(=O)CC[C@@H]3C(=O)Nc3nc(C(C)C)c(C(=O)N(C)C)s3)CC2)ccc1Cl [Example 189] |
| 100 | 6 | CNC(=O)c1sc(NC(=O)[C@H]2CCC(=O)N2C2CCN(Cc3ccc(Cl)c(C)c3)CC2)nc1C [Example 190] |
| 99 | 19 | Cc1cc(-c2noc(C)n2)cc(NC(=O)[C@H]2CCC(=O)N2C2CCN(Cc3ccc(Cl)c(C)c3)CC2)n1 [Example 193] |

More lines, now with the values behind:

| SMILES | inhibition at 1 µM [%] | Ki [nM] |
| --- | --- | --- |
| Cc1cc(CN2CCC(N3C(=O)CC[C@@H]3C(=O)Nc3cccc(C(=O)N4CCC4)c3)CC2)ccc1Cl [Example 152] | 100 | 12 |
| Cc1cc(CN2CCC(N3C(=O)CC[C@@H]3C(=O)Nc3cccc(C(=O)N4CCCCC4CO)c3)CC2)ccc1Cl (some centres unmarked) [Example 153] | 99 | 12 |
| Cc1nnc(NC(=O)c2cccc(NC(=O)[C@H]3CCC(=O)N3C3CCN(Cc4ccc(Cl)c(C)c4)CC3)c2)s1 [Example 154] | 98 | 14 |
| CCn1cc(NC(=O)[C@H]2CCC(=O)N2C2CCN(Cc3ccc(Cl)c(C)c3)CC2)cc1C(=O)NC [Example 155] | 98 | 15 |
| CCN(CCO)C(=O)c1cccc(NC(=O)[C@H]2CCC(=O)N2C2CCN(Cc3ccc(Cl)c(C)c3)CC2)c1 [Example 156] | 98 | 15 |
| CCN(CC)C(=O)c1cccc(NC(=O)[C@H]2CCC(=O)N2C2CCN(Cc3ccc(Cl)c(C)c3)CC2)c1 [Example 157] | 99 | 15 |
| Cc1cc(CN2CCC(N3C(=O)CC[C@@H]3C(=O)Nc3cccc(C(=O)NC(C)(C)C)c3)CC2)ccc1Cl [Example 158] | 100 | 16 |
| Cc1cc(CN2CCC(N3C(=O)CC[C@@H]3C(=O)Nc3cc(C(=O)N4CCOCC4)ccn3)CC2)ccc1Cl [Example 160] | 97 | 19 |
| Cc1cc(CN2CCC(N3C(=O)CC[C@@H]3C(=O)Nc3cccc(C(=O)NCC4CCCCO4)c3)CC2)ccc1Cl (some centres unmarked) [Example 161] | 97 | 20 |
| Cc1cc(CN2CCC(N3C(=O)CC[C@@H]3C(=O)Nc3cccc(C(=O)NC[C@@H]4CCCO4)c3)CC2)ccc1Cl [Example 162] | 97 | 20 |
| Cc1cc(CN2CCC(N3C(=O)CC[C@@H]3C(=O)Nc3cccc(C(=O)NCC(C)(C)C)c3)CC2)ccc1Cl [Example 163] | 99 | 23 |
| CCn1cc(NC(=O)[C@H]2CCC(=O)N2C2CCN(Cc3ccc(Cl)c(C)c3)CC2)cc1C(=O)N1CCCC1 [Example 164] | 96 | 24 |
| CNC(=O)c1cccc(N(C)C(=O)[C@H]2CCC(=O)N2C2CCN(Cc3ccc(Cl)c(C)c3)CC2)c1 [Example 166] | 60 | 905 |
| COc1ccc(NC(=O)[C@H]2CCC(=O)N2C2CCN(Cc3ccc(Cl)c(C)c3)CC2)cc1C(=O)N(C)CCO [Example 178] | 86 | 108 |
| CNC(=O)c1cc(NC(=O)[C@H]2CCC(=O)N2C2CCN(Cc3ccc(Cl)c(C)c3)CC2)ccc1OC [Example 180] | 97 | 16 |
| Cc1cc(CN2CCC(N3C(=O)CC[C@@H]3C(=O)Nc3cc(C(=O)N(C)CCO)cc(-c4nnnn4C)c3)CC2)ccc1Cl [Example 186] | 99 | 1 |
| Cc1cc(CN2CCC(N3C(=O)CCC3C(=O)Nc3cc(-c4c(C)noc4C)ccn3)CC2)ccc1Cl (centres unmarked) [Example 192] | 96 |  |
| Cc1cc(CN2CCC(N3C(=O)CC[C@@H]3C(=O)Nc3cc(-c4c(C)noc4C)ccn3)CC2)ccc1Cl [Example 192] |  | 6 |
